Consider one compound from US7947852B2, “Naphthalene compounds, a process for their preparation and pharmaceutical compositions containing them” (Les Laboratoires Servier, priority 2007, dated 2011).

The target in experiment [1] is T1, MT2 receptor (Homo sapiens, UniProt P49286).
T1 sequence (P49286 1-362): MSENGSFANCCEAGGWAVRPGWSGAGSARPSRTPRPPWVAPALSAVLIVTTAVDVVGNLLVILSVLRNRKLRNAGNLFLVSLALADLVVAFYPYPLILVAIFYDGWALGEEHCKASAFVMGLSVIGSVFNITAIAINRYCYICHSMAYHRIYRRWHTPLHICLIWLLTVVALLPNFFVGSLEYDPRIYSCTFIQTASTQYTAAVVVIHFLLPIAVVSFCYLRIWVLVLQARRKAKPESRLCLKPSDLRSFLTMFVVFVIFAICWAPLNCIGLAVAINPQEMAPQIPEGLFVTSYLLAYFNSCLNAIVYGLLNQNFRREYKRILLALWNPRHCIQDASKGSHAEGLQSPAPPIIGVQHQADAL
Kind of experiment: Melatonin MT2 receptor binding study. The settings on record: 2-[125I]-iodomelatonin radioligand, competitive binding. As to the method:
(§1) The MT1 or MT2 receptor binding experiments are carried out using 2-[^125I]-iodomelatonin as reference radioligand. The radioactivity retained is determined using a liquid scintillation counter.
(§2) Competitive binding experiments are then carried out in triplicate using the various test compounds. A range of different concentrations is tested for each compound. The results enable the binding affinities of the compounds tested (Ki) to be determined.

Experiment [2] addresses MT1 receptor (Homo sapiens, UniProt P48039). Put plainly: Melatonin MT1 receptor binding study. The note with it: 2-[125I]-iodomelatonin radioligand, competitive binding. On the procedure:
as §1, §2

A word on the Ki: it is the dissociation constant of the complex between target and ligand, obtained from inhibition or displacement. A high value points to lower affinity.

MT1 receptor, sequence (P48039 whole entry): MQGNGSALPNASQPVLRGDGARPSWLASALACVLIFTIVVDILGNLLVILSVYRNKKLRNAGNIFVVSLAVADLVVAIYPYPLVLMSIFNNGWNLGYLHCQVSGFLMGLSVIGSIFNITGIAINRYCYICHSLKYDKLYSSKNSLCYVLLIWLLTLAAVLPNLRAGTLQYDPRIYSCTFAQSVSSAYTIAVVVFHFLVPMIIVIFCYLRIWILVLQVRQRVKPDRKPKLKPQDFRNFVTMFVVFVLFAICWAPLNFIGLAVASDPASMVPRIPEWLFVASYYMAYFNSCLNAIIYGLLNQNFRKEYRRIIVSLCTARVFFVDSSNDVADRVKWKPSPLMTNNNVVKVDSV

Consider `COc1ccc2cccc(/C(CNC(C)=O)=N\O)c2c1` [Example 2, N-[(2E)-2-(Hydroxyimino)-2-(7-methoxy-1-naphthyl)ethyl]acetamide], for which the inhibitory constant (Ki) in experiment [1] turned out to be 0.8 nM; in experiment [2] it was 7 nM.
